Values of other authors as cited in patent US20230321008A1, “INHIBITORS OF ACID SPHINGOMYELINASE FOR PREVENTING AND TREATING THE COVID-19 DISEASE” (priority 2020, published 2023).

Biological target: T1, acid sphingomyelinase (ASM) (Homo sapiens, UniProt P17405)
T1 sequence (P17405 47-631): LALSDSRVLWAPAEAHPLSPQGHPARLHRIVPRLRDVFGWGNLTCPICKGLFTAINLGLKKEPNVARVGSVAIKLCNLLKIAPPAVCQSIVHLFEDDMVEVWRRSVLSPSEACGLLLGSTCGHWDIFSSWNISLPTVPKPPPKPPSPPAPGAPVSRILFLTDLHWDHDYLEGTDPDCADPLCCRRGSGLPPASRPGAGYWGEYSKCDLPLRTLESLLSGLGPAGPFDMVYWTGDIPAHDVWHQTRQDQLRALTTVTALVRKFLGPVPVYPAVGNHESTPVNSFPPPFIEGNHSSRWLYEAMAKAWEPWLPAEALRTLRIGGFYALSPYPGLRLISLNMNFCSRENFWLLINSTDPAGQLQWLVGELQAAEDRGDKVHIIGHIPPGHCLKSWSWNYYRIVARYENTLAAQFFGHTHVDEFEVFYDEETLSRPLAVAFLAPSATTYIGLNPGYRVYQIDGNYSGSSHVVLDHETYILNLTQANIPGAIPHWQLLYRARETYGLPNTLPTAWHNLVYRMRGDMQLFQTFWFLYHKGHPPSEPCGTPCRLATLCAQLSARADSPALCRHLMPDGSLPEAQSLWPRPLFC
Conditions: cited from earlier work

Row | SMILES | In vitro inhibition of acid sphingomyelinase (in words)
1 | CC(C)(C)c1ccc(C(O)CCCN2CCC(C(O)(c3ccccc3)c3ccccc3)CC2)cc1 (centres unmarked) [terfenadine] | in vitro inhibit acid sphingomyelinase with varying degrees
2 | COc1cc(C(=O)OCCCN2CCCN(CCCOC(=O)c3cc(OC)c(OC)c(OC)c3)CC2)cc(OC)c1OC [dilazep] | in vitro inhibit acid sphingomyelinase with varying degrees
3 | COc1ccc(C(CN(C)C)C2(O)CCCCC2)cc1 (centres unmarked) [venlafaxine] | there are discrepancies whether citalopram, venlafaxine and mirtazapine do have in vitro FIASMA effect
4 | CN1CCN(CCCN2c3ccccc3Sc3ccc(C(F)(F)F)cc32)CC1 [Trifluoperazine] | in vitro inhibit acid sphingomyelinase with varying degrees
5 | OCCN1CCN(CC/C=C2/c3ccccc3Sc3ccc(C(F)(F)F)cc32)CC1 [Flupenthixol] | in vitro inhibit acid sphingomyelinase with varying degrees
6 | CN(C)CCCN1c2ccccc2CCc2ccc(Cl)cc21 [Clomipramine, clomipramine] | in vitro inhibit acid sphingomyelinase with varying degrees
7 | CCN(CC)CCCN(c1ccccc1)C1Cc2ccccc2C1 [aprindine] | in vitro inhibit acid sphingomyelinase with varying degrees
8 | O=C1NCCN1CCN1CCC(c2cn(-c3ccc(F)cc3)c3ccc(Cl)cc23)CC1 [Sertindole] | in vitro inhibit acid sphingomyelinase with varying degrees
9 | CN1CCc2c(c3ccccc3n2Cc2ccccc2)C1 [mebhydrolin] | in vitro inhibit acid sphingomyelinase with varying degrees
10 | CN1CCC(=C2c3ccccc3Sc3ccccc32)CC1 [pimethixene] | in vitro inhibit acid sphingomyelinase with varying degrees
11 | OCCN1CCN(CCCN2c3ccccc3Sc3ccc(C(F)(F)F)cc32)CC1 [Fluphenazine] | in vitro inhibit acid sphingomyelinase with varying degrees
12 | CC(CN(C)C)CN1c2ccccc2CCc2ccccc21 (centres unmarked) [trimipramine] | in vitro inhibit acid sphingomyelinase with varying degrees
13 | OC(CCN1CCCCC1)(c1ccccc1)C1CC2C=CC1C2 (centres unmarked) [biperidene] | in vitro inhibit acid sphingomyelinase with varying degrees
14 | Fc1ccc(C(c2ccc(F)cc2)N2CCN(C/C=C/c3ccccc3)CC2)cc1 [flunarizine] | in vitro inhibit acid sphingomyelinase with varying degrees
15 | OCCN1CCN(CCCN2c3ccccc3Sc3ccc(Cl)cc32)CC1 [Perphenazine] | in vitro inhibit acid sphingomyelinase with varying degrees
16 | CN1[C@@H]2CC[C@H]1C[C@@H](OC(c1ccccc1)c1ccccc1)C2 [benztropine] | in vitro inhibit acid sphingomyelinase with varying degrees
17 | CCN(CC)C(C)CN1c2ccccc2Sc2ccccc21 (centres unmarked) [profenamine] | in vitro inhibit acid sphingomyelinase with varying degrees
18 | CCN(CCCc1ccccc1)CCCc1ccccc1 [alverine] | in vitro inhibit acid sphingomyelinase with varying degrees
19 | C[C@H]1[C@H]2CC[C@H]3[C@@H]4CC=C5C[C@@H](N(C)C)CC[C@]5(C)[C@H]4CC[C@]23CN1C [conessine] | in vitro inhibit acid sphingomyelinase with varying degrees
20 | CC(C)/N=c1\cc2n(-c3ccc(Cl)cc3)c3ccccc3nc-2cc1Nc1ccc(Cl)cc1 [clofazimine] | in vitro inhibit acid sphingomyelinase with varying degrees
21 | CCN(CC)CCNC(C(=O)OCCC(C)C)c1ccccc1 (centres unmarked) [camylofin] | in vitro inhibit acid sphingomyelinase with varying degrees
22 | CNCCCC1c2ccccc2C=Cc2ccccc21 [protriptyline] | in vitro inhibit acid sphingomyelinase with varying degrees
23 | C[C@H]1CC[C@]2(NC1)O[C@H]1C[C@H]3[C@@H]4CC[C@H]5C[C@@H](O)CC[C@]5(C)[C@H]4CC[C@]3(C)[C@H]1[C@@H]2C [tomatidine] | in vitro inhibit acid sphingomyelinase with varying degrees
24 | CC(NCCC(c1ccccc1)c1ccccc1)c1ccccc1 (centres unmarked) [fendiline] | in vitro inhibit acid sphingomyelinase with varying degrees

Row | SMILES | In vitro inhibition of acid sphingomyelinase (in words)
25 | CCN(CC)CCCC(C)Nc1c2ccc(Cl)cc2nc2ccc(OC)cc12 (centres unmarked) [quinacrine] | in vitro inhibit acid sphingomyelinase with varying degrees
26 | CCCCCCCCNC(C)C(O)c1ccc(SC(C)C)cc1 (centres unmarked) [suloctidil] | in vitro inhibit acid sphingomyelinase with varying degrees
27 | CC(CN1c2ccccc2Sc2ccccc21)N(C)C (centres unmarked) [promethazine] | in vitro inhibit acid sphingomyelinase with varying degrees
28 | CSc1ccc2c(c1)N(CCC1CCCCN1C)c1ccccc1S2 (centres unmarked) [Thioridazin] | in vitro inhibit acid sphingomyelinase with varying degrees
29 | CN(C)CCCN1c2ccccc2Sc2ccccc21 [Promazine] | in vitro inhibit acid sphingomyelinase with varying degrees
30 | CC(C)COCC(CN(Cc1ccccc1)c1ccccc1)N1CCCC1 (centres unmarked) [bepridil] | in vitro inhibit acid sphingomyelinase with varying degrees
31 | COc1ccccc1OCCNCC(O)COc1cccc2[nH]c3ccccc3c12 (centres unmarked) [Carvedilol, carvedilol] | in vitro inhibit acid sphingomyelinase with varying degrees
32 | Clc1ccc(C(OCCN2CCCCC2)c2ccccc2)cc1 (centres unmarked) [cloperastine] | in vitro inhibit acid sphingomyelinase with varying degrees
33 | CN(C)CCCN1c2ccccc2Sc2ccc(C(F)(F)F)cc21 [Triflupromazine] | in vitro inhibit acid sphingomyelinase with varying degrees
34 | CN(CCCN1c2ccccc2CCc2ccccc21)CC(=O)c1ccc(Cl)cc1 [lofepramine] | in vitro inhibit acid sphingomyelinase with varying degrees
35 | C1CCC(C(CC2CCCCN2)C2CCCCC2)CC1 (centres unmarked) [perhexiline] | in vitro inhibit acid sphingomyelinase with varying degrees
36 | CC/C(=C(\c1ccccc1)c1ccc(OCCN(C)C)cc1)c1ccccc1 [tamoxifen] | in vitro inhibit acid sphingomyelinase with varying degrees
37 | CN(C)CCC=C1c2ccccc2C=Cc2ccccc21 [cyclobenzaprine] | in vitro inhibit acid sphingomyelinase with varying degrees
38 | CN(C)CCC=C1c2ccccc2COc2ccccc21 [doxepin] | in vitro inhibit acid sphingomyelinase with varying degrees
39 | CNCCC=C1c2ccccc2CCc2ccccc21 [nortriptyline] | in vitro inhibit acid sphingomyelinase with varying degrees
40 | CCN(CCCCOC(=O)c1ccc(OC)c(OC)c1)C(C)Cc1ccc(OC)cc1 (centres unmarked) [mebeverine] | in vitro inhibit acid sphingomyelinase with varying degrees
41 | CN1CCN2c3ncccc3Cc3ccccc3C2C1 (centres unmarked) [mirtazapine] | there are discrepancies whether citalopram, venlafaxine and mirtazapine do have in vitro FIASMA effect
42 | CN(C)CC/C=C1/c2ccccc2Sc2ccc(Cl)cc21 [Chlorprothixene] | in vitro inhibit acid sphingomyelinase with varying degrees
43 | OC1(c2ccc(Cl)c(C(F)(F)F)c2)CCN(CCCC(c2ccc(F)cc2)c2ccc(F)cc2)CC1 [Penfluridol] | in vitro inhibit acid sphingomyelinase with varying degrees
44 | COc1ccc(CCN2CCC(Nc3nc4ccccc4n3Cc3ccc(F)cc3)CC2)cc1 [astemizole] | in vitro inhibit acid sphingomyelinase with varying degrees
45 | C[C@@H]1CC[C@@]2(NC1)O[C@H]1C[C@H]3[C@@H]4CC=C5C[C@@H](O)CC[C@]5(C)[C@H]4CC[C@]3(C)[C@H]1[C@@H]2C [solasodine] | in vitro inhibit acid sphingomyelinase with varying degrees
46 | COCC(=O)O[C@]1(CCN(C)CCCc2nc3ccccc3[nH]2)CCc2cc(F)ccc2[C@@H]1C(C)C [mibefradil] | in vitro inhibit acid sphingomyelinase with varying degrees
47 | CC[C@H]1CN2CCc3cc(OC)c(OC)cc3[C@@H]2C[C@@H]1C[C@H]1NCCc2cc(OC)c(OC)cc21 [emetine] | in vitro inhibit acid sphingomyelinase with varying degrees
